Source: patent US8148364B2, “Substituted bicyclic pyrimidone derivatives” (Sanofi-Aventis, priority 2005, dated 2012)

Biological target: GSK3β (Homo sapiens, UniProt P49841)
Test: Inhibitory activity against GSK3β (33P-ATP phosphorylation of prephosphorylated GS1 peptide, two protocols)
Assay type: biochemical
Experimental: Two different protocols can be used. In a first protocol: 7.5 μM of prephosphorylated GS1 peptide and 10 μM ATP (containing 300,000 cpm of 33P-ATP) were incubated in 25 mM Tris-HCl, pH 7.5, 0.6 mM DTT, 6 mM MgCl2, 0.6 mM EGTA, 0.05 mg/ml BSA buffer for 1 hour at room temperature in the presence of GSK3beta (total reaction volume: 100 microliters). In a second protocol: 4.1 μM of prephosphorylated GS1 peptide and 42 μM ATP (containing 260,000 cpm 33P-ATP) were incubated in 80 mM Mes-NaOH, pH 6.5, 1 mM Mg acetate, 0.5 mM EGTA, 5 mM 2-mercaptoethanol, 0.02% Tween 20, 10% glycerol buffer for 2 hours at room temperature in the presence of GSK3beta. Inhibitors were solubilized in DMSO (final solvent concentration in the reaction medium, 1%). The reaction was stopped with 100 microliters of a solution made of 25 g polyphosphoric acid (85% P2O5), 126 ml 85% H3PO4, H2O to 500 ml and then diluted to 1:100 before use. An aliquot of the reaction mixture was then transferred to Whatman P81 cation exchange filters and rinsed with the solution described above. Incorporated 33P radioactivity was determined by liquid scintillation spectrometry. The phosphorylated GS-1 peptide used in the example was the same one as reported in Woodgett, J. R. (1989) Analytical Biochemistry 180, 237-241 and had the same sequence as reported therein, which reference is incorporated herein by reference in its entirety.

Sequence of GSK3β (P49841 whole entry): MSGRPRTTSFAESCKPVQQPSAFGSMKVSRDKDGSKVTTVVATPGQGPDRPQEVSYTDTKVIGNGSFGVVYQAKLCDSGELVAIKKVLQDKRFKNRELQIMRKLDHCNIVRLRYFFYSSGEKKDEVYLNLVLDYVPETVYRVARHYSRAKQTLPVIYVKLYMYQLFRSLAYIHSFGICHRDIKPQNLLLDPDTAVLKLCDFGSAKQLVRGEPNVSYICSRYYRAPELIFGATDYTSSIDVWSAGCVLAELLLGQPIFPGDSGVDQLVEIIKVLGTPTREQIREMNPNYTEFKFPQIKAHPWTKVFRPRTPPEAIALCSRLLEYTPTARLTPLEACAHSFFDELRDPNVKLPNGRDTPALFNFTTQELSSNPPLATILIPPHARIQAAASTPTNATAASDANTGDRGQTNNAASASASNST

IC50: 5 nM
SMILES: COc1cc(F)ccc1C(=O)NC1CCCn2c1nc(-c1ccncn1)cc2=O (racemic) [compound No. 33 of table 1, (+/−) 4-Fluoro-2-methoxy-N-(4-oxo-2-pyrimidin-4-yl-6,7,8,9-tetrahydro-4H-pyrido[1,2-a]pyrimidin-9-yl)benzamide]
